Measured values taken from PMC7712530 (Nucleosides, nucleotides & nucleic acids, 2015).

Experiments:
MT-4 cells = assay: Cytotoxicity assay; type: cell-based; settings: for cytotoxicity (in words): text: toward HepG2 cells, table head and method say MT-4
HBV [1] = assay: Anti-HBV assay in HepG2 2.2.15 cells; type: cell-based; settings: for EC50: Hepatitis B virus, HepG2 2.2.15, 144 h, read-out: EC50 anti-HBV activity
HBV [2] = settings: relative to entecavir 1; ref 3a; cited from earlier work

Compound	cytotoxicity (in words) (MT-4 cells)	EC50 (HBV [1]) [nM]	other results
9-[Bis-O-(pivaloyoxymethyl)phosphorylmethoxy]allyl]guanine [Compound 8]	cytotoxicity toward HepG2 cells was also observed		
C=C(CCO)Cn1cnc2c(=O)[nH]c(N)nc21 [Compound 6, 2-Amino-9-(4-hydroxy-2-methylenebutyl)-1H-purin-6(9H)-one]	nor display any cytotoxicity	> 1000	anti-HBV activity (in words) (HBV [1]; HepG2 2.2.15 cells): neither exhibit anti-HBV activity
C=C1[C@H](CO)[C@@H](O)C[C@@H]1n1cnc2c(=O)[nH]c(N)nc21 [Entecavir, entecavir, reference compound]		0.77	
Nc1nc2c(ncn2[C@H]2C[C@@H](CO)[C@H](O)C2)c(=O)[nH]1 [carbocyclic dG]			potency, times less than that of entecavir (1) (HBV [2]): 10 times
CC(C)(C)C(=O)O [pivalic acid, reference compound]			concentration up to which no cytotoxicity was shown (MT-4 cells; in this assay system): > 100 µM
